The test deals with T1, BRD4 (Homo sapiens, UniProt O60885).
T1 construct: Mean 488 intensity of BRD4 quantitated in nuclear region; endogenous in cells; host or cells: EoL-1 eosinophilic leukemia cells
Briefly: BRD4 degradation assay in EOL1 cells (immunofluorescence imaging). Type of test: cell-based. The following applies: EoL-1 eosinophilic leukemia cells, 4 hours treatment, nuclear BRD4 immunofluorescence. The procedure, abridged: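 EoL-1 cells treated 4 h at 37 °C with 20-point 1/3 serial dilutions (0.2% DMSO) in RPMI/10% FBS, then fixed and immunostained for BRD4. Mean nuclear BRD4 intensity measured by high-content imaging, with Hoechst nuclear masking. DMSO and no-primary-antibody controls define 0 and 100%; DC50 and maximal effect from dose-response fit.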

The record followed here is patent US12187816B2, “Macrocyclic compounds and methods of use thereof” (Genentech, Inc., priority 2020, dated 2025).

Each structure is given as a SMILES string. Starred links: 1 amine or outer side, 2 acyl side, 3 side chain; linkers in the order of their positions; H or OH if unused. Non-standard residues stand in square brackets, D forms with d. Residues, ends and D or L forms follow the SMILES beside them. *: point of attachment. JQ1acid = Cc1sc2c(c1C)C(c1ccc(Cl)cc1)=N[C@@H](CC(=O)*)c1nnc(C)n1-2; X1 = CC(C)(C)[C@@H](C(=O)[*:2])n1cc(COCCN[*:1])nn1; dBip = N[C@H](Cc1ccc(-c2ccccc2)cc1)C(=O)O; Hyp = O=C(O)[C@@H]1C[C@@H](O)CN1; Tle = CC(C)(C)[C@H](N)C(=O)O; dDap = NC[C@@H](N)C(=O)O; AEA = NCCOCC(=O)O

Turning to `Cc1sc2c(c1C)C(c1ccc(Cl)cc1)=N[C@@H](CC(=O)NC[C@H]1NC(=O)[C@@H](CCCCN)NC(=O)[C@@H](Cc3ccc(-c4ccccc4)cc3)NC(=O)[C@@H]3C[C@@H](O)CN3C(=O)[C@H](C(C)(C)C)NC(=O)COCCNC1=O)c1nnc(C)n1-2` [Compound 72] (cyclo([AEA][Tle][Hyp][dBip][dK][dDap](JQ1acid))), the half-maximal degradation concentration (DC50) is below 1 µM. `Cc1sc2c(c1C)C(c1ccc(Cl)cc1)=N[C@@H](CC(=O)NC[C@H]1NC(=O)CNC(=O)[C@@H](Cc3ccc(-c4ccccc4)cc3)NC(=O)[C@@H]3C[C@@H](O)CN3C(=O)[C@H](C(C)(C)C)n3cc(nn3)COCCNC1=O)c1nnc(C)n1-2` [Compound 200] registered a 50% degradation concentration (DC50) below 0.05 µM.

Compound `Cc1sc2c(c1C)C(c1ccc(Cl)cc1)=N[C@@H](CC(=O)NC[C@H]1NC(=O)[C@@H](C)NC(=O)[C@@H](Cc3ccc(-c4ccccc4)cc3)NC(=O)[C@@H]3C[C@@H](O)CN3C(=O)[C@H](C(C)(C)C)n3cc(nn3)COCCNC1=O)c1nnc(C)n1-2` [Compound 201] registered a DC50 below 0.05 µM. In turn, `Cc1sc2c(c1C)C(c1ccc(Cl)cc1)=N[C@@H](CC(=O)NC[C@H]1NC(=O)[C@@H](C(C)C)NC(=O)[C@@H](Cc3ccc(-c4ccccc4)cc3)NC(=O)[C@@H]3C[C@@H](O)CN3C(=O)[C@H](C(C)(C)C)n3cc(nn3)COCCNC1=O)c1nnc(C)n1-2` [Compound 202] (cyclo([Hyp][dBip][dV][dDap](JQ1acid)[X1])) had a DC50 below 0.05 µM.

On to `Cc1sc2c(c1C)C(c1ccc(Cl)cc1)=N[C@@H](CC(=O)N(C)C[C@H]1NC(=O)CNC(=O)[C@@H](Cc3ccc(-c4ccccc4)cc3)NC(=O)[C@@H]3C[C@@H](O)CN3C(=O)[C@H](C(C)(C)C)n3cc(nn3)COCCNC1=O)c1nnc(C)n1-2` [Compound 203], for which the half-maximal degradation concentration (DC50) is below 1 µM. Take `Cc1sc2c(c1C)C(c1ccc(Cl)cc1)=N[C@@H](CC(=O)N(C)C[C@H]1NC(=O)CNC(=O)[C@@H](Cc3ccc(-c4ccccc4)cc3)NC(=O)[C@@H]3C[C@@H](O)CN3C(=O)[C@H](C(C)(C)C)n3cc(nn3)COCCN(C)C1=O)c1nnc(C)n1-2` [Compound 204]: the half-maximal degradation concentration (DC50) was above 20 µM. The compound `Cc1sc2c(c1C)C(c1ccc(Cl)cc1)=N[C@@H](CC(=O)NC[C@H]1NC(=O)CNC(=O)[C@@H](Cc3ccc(-c4ccccc4)cc3)NC(=O)[C@@H]3C[C@@H](O)CN3C(=O)[C@H](C(C)(C)C)n3cc(nn3)COCCN(C)C1=O)c1nnc(C)n1-2` [Compound 205] had a DC50 below 0.05 µM. With `Cc1sc2c(c1C)C(c1ccc(Cl)cc1)=N[C@@H](CC(=O)NC[C@H]1CCCNC(=O)[C@@H](Cc3ccc(-c4ccccc4)cc3)NC(=O)[C@@H]3C[C@@H](O)CN3C(=O)[C@H](C(C)(C)C)n3cc(nn3)COCCNC1=O)c1nnc(C)n1-2` [Compound 206] the figure was below 0.05 µM. Compound `Cc1sc2c(c1C)C(c1ccc(Cl)cc1)=N[C@@H](CC(=O)NC[C@H]1CCCNC(=O)[C@@H](Cc3ccc(-c4ccccc4)cc3)NC(=O)[C@@H]3C[C@@H](O)CN3C(=O)[C@H](C(C)(C)C)n3cc(nn3)C3(CC3)CNC1=O)c1nnc(C)n1-2` [Compound 207] showed a DC50 below 0.05 µM.

In turn, `Cc1sc2c(c1C)C(c1ccc(Cl)cc1)=N[C@@H](CC(=O)NC[C@H]1CCCNC(=O)[C@@H](Cc3ccc(-c4ccccc4)cc3)NC(=O)[C@@H]3C[C@@H](O)CN3C(=O)[C@H](C(C)(C)C)n3cc(nn3)C3(CC3)CNC(=O)CNC1=O)c1nnc(C)n1-2` [Compound 208] gave a DC50 below 1 µM.

Broadly, the DC50 is the concentration giving 50% degradation. The low end stands for degradation at low concentration, the high end for degradation only at high concentration.
